The values that follow come from patent US20260199193A1, “POWDERY SOLID COSMETIC” (Shiseido Company, Ltd., priority 2022, published 2026).

Peptide text beside a SMILES is read from it.

This data set in a line: log P value (octanol/water partition coefficient). It counts as physicochemical. Conditions: octanol / aqueous buffer solution at pH 7. The text has this: The log P value of the nonionic water-soluble agent may be 1.8 or less, 1.5 or less, 1.3 or less, or 1.0 or less, and may be −4.0 or more, −3.8 or more, −3.5 or more, −3.3 or more, −3.0 or more, −2.7 or more, or −2.5 or more. The “log P value” herein is a parameter that represents the tendencies of partitioning of a substance into water and octanol, and is a value commonly used as an index to determine the degree of hydrophilicity or hydrophobicity of a substance. The smaller the log P value, the more hydrophilic the substance is meant to be. The larger the log P value, the more hydrophobic the substance is meant to be. The log P value may also be referred to as “octanol/water partition coefficient” according to the method of its calculation. The octanol/water partition coefficient can be determined by adding an agent into a flask containing octanol and an aqueous buffer solution at pH 7, shaking the flask, and then performing calculation according to the following Equation A based on the agent concentration in each phase: […]
Broadly, the logP is the decadic logarithm of the partition coefficient of the neutral form, usually between octanol and water. For `NC(=O)c1cccnc1` [niacinamide], the logP is -0.4. The same measure for `Nc1ncnc2c1ncn2[C@@H]1O[C@H](CO)[C@@H](O)[C@H]1O` [adenosine]: -1.1.

`NCC(=O)NCC(=O)O` [glycylglycine] (H-Gly-Gly-OH) returned a logP of -2.3.

Consider `C[N+](C)(C)CC(=O)[O-]` [trimethylglycine], for which the logP was 0.1. In the case of `NC[C@H]1CC[C@H](C(=O)O)CC1` [tranexamic acid, reference compound], the logP was -2.

For the molecule `Cc1ncc(CO)c(CO)c1O` [pyridoxine], the logP was -0.8. In the case of `OC[C@@H](O)[C@H](O)[C@@H](O)CO` [xylitol], the logP is -2.5. The same measure for `CCOC1=C(O)[C@@H]([C@@H](O)CO)OC1=O` [2-O-ethyl ascorbic acid]: -1.5. `O=C1NCCN1CCO` [1-(2-hydroxyethyl)-2-imidazolidinone] had a logP of -1.4. `O=C1O[C@H]([C@@H](O)CO)C(O)=C1O` [L-ascorbic acid]: the logP is 1.6. The same measure for `OC[C@H]1O[C@H](O[C@H]2O[C@H](CO)[C@@H](O)[C@H](O)[C@H]2O)[C@H](O)[C@@H](O)[C@@H]1O` [trehalose]: -1.7; for `OC[C@H]1O[C@@H](Oc2ccc(O)cc2)[C@H](O)[C@@H](O)[C@@H]1O` [arbutin]: -0.7. The same measure for `NCCS(=O)(=O)O` [taurine]: 1.4; for `CC(O)CCO` (stereo not drawn) [1,3-butylene glycol]: -0.4; for `OCC(O)CO` [Glycerin]: -1.8.
